Assay [1] addresses PI3Kγ (p110γ) Recombinant Human Protein (Homo sapiens (Human), UniProt P48736). In words: PI3K-γ Scintillation Proximity Assay. It counts as biochemical. Particulars: 20 μM PIP2, 2 μM ATP, 13 nM PI3Kγ, 120 min; read-out: PI3K-gamma SPA IC50. The method, boiled down:
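Radiometric SPA readout: […] bound to WGA beads after overnight shaking, IC50 derived from % activity of DMSO control. Reaction used human p110γ, 2 μM ATP, 20 μM PIP2, pH 6.7 MOPS buffer with MgCl2, DTT, CHAPS, 2% DMSO, room temperature.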

Assay [2] has as its target PI3Kδ (p110δ/p85α) Recombinant Human Protein (Homo sapiens (Human), UniProt O00329). In words: PI3Kδ Scintillation Proximity Assay. Particulars: 20 μM PIP2, 2 μM ATP, 3.4 nM PI3Kδ, 120 min; read-out: PI3K-delta SPA IC50. It counts as biochemical. On the technique in general: Scintillation proximity formats need no separation of bound from free tracer.
The test system of assay [3] is Phosphorylated Ribosomal Protein S6 (RPS6). In words: THP-1 RPS6 ELISA Assay. It counts as cell-based, Human. Particulars: THP-1 cells, serum starved, 2 hours with compound, 10 nM MCP-1 for 15 minutes; read-out: THP p-RPS6 ELISA IC50. Here is the method: To measure the Phosphorylated Ribosomal Protein S6 (RPS6) in cell lysates, THP-1 cells (Human Acute Monocytic Leukemia) are purchased from ATCC (Manassas, Va.) and maintained in RPMI with 10% FBS (Gibco/Life Technologies, Carlsbad, Calif.). For the assay, THP-1 cells are serum starved overnight in RPMI, then plated in RPMI (2×10^5 cells/well in 90 μL) into 96-well flat-bottom tissue culture treated plates (Corning, Corning, N.Y.), in the presence or absence of a concentration range of test compounds. Covered plates are incubated for 2 hours at 37° C., 5% CO2 then treated with or without 10 nM MCP-1 (MYBioSource, San Diego, Calif.) for 15 minutes at 37° C., 5% CO2. Plates are centrifuged at 1600 RPM and supernatants are removed. Cells are lysed in Lysis Buffer (Cell Signaling, Danvers, Mass.) with Protease Inhibitor (Calbiochem/EMD, Germany), PMSF (Sigma, St Louis Mo.), HALTS (Thermo Fisher, Rockford, Ill.) for 30 min on wet ice. Cell lysates are frozen at −80° C. before testing. The lysates are tested in the Human/Mouse/Rat Phospho-RPS6 ELISA (R&D Systems, Inc. Minn, Minn.). The plate is measured using a microplate reader (SpectraMax M5-Molecular Devices, LLC Sunnyvale, Calif.) set to 450 nm with a wavelength correction of 540. […]
In general terms: In an ELISA, binding on a coated surface is turned into a signal by an enzyme label.

Sequence of PI3Kγ (p110γ) Recombinant Human Protein (P48736 whole entry): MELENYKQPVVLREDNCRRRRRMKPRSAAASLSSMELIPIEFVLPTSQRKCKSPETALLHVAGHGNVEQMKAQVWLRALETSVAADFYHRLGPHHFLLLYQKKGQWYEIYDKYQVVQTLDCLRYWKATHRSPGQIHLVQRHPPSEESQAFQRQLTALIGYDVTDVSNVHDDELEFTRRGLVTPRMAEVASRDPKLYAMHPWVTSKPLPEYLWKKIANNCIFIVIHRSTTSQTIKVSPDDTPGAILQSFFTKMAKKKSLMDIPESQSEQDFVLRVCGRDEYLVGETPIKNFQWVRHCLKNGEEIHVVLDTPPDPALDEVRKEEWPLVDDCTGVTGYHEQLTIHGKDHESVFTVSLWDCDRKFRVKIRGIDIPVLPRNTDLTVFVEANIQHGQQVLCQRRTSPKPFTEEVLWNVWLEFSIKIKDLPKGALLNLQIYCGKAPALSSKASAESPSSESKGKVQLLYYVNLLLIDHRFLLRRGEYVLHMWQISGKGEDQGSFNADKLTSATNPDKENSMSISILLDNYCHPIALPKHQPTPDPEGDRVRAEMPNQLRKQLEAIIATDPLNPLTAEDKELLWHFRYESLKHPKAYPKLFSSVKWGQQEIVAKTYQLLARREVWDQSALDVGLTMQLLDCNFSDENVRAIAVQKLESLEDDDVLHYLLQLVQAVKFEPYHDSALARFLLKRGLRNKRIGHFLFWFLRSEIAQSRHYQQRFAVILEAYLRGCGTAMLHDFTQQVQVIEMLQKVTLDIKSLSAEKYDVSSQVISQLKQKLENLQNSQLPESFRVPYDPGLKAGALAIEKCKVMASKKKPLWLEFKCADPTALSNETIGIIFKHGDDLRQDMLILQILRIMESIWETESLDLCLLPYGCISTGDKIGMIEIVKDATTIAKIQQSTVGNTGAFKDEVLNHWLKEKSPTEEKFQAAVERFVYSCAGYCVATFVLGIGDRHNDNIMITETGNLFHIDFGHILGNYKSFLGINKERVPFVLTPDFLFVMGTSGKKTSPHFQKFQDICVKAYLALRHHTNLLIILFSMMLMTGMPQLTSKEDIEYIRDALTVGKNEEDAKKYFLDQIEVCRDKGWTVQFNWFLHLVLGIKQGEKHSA
Sequence of PI3Kδ (p110δ/p85α) Recombinant Human Protein (O00329 whole entry): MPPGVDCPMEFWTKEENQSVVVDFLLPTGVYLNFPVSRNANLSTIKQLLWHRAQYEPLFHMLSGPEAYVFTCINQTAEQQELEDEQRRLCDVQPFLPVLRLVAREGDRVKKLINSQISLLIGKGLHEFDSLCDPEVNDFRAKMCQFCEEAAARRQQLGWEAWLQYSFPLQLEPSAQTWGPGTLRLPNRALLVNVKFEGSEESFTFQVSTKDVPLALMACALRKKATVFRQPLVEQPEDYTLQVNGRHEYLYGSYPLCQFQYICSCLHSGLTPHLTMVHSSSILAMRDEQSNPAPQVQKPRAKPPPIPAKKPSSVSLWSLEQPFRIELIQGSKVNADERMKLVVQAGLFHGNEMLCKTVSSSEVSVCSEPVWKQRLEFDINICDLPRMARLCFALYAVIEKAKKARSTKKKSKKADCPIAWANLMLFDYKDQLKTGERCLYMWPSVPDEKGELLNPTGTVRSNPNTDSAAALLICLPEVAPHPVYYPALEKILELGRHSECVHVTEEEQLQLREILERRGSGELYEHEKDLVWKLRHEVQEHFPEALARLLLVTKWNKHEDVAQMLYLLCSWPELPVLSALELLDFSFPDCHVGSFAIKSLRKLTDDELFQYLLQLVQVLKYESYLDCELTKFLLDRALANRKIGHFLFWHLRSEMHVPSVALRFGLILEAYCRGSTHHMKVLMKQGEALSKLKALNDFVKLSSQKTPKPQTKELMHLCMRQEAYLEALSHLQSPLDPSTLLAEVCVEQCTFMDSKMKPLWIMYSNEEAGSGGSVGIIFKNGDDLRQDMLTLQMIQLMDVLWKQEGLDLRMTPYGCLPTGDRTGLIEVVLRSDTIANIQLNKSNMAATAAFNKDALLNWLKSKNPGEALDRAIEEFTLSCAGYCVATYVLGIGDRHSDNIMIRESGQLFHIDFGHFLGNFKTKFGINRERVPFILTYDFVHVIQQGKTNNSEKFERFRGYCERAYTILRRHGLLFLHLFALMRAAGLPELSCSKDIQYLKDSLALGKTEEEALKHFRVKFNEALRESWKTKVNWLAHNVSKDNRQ
Sequence of PI3Kδ (p110δ/p85α) Recombinant Human Protein (P27986 whole entry partner): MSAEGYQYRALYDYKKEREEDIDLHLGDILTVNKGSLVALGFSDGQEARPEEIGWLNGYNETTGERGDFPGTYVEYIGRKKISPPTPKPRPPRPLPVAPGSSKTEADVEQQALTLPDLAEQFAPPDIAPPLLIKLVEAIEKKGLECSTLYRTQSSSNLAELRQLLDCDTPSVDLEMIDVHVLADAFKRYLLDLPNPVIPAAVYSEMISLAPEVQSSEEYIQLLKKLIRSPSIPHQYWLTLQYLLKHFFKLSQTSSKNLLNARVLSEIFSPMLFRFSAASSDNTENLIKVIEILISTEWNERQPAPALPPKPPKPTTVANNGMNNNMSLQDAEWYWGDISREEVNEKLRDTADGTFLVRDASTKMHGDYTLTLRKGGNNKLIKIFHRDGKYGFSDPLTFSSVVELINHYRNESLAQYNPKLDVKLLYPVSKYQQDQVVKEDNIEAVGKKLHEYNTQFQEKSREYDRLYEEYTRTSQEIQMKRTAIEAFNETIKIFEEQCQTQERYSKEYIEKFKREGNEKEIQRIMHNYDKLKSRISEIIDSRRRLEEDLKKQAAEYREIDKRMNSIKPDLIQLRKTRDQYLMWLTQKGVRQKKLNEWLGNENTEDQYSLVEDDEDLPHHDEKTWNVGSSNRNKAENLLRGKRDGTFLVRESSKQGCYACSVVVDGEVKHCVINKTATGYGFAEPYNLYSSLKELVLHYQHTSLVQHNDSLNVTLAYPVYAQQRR

For `O=S(=O)(CC(F)(F)F)Nc1cc(-c2ccc3nc(-c4nc5ccccc5[nH]4)oc3c2)cnc1F` [Example 75, N-(5-(2-(1H-Benzo [d]imidazol-2-yl)benzo[d]oxazol-6-yl)-2-fluoropyridin-3-yl)-2,2,2-trifluoro-ethanesulfonamide bis(trifluoroacetate)], the IC50 in assay [1] and in assay [2] was < 250 nM in each case.
Consider `Cc1ncc(-c2ccc3nc(-c4nc5ccccc5[nH]4)oc3c2)cc1NS(=O)(=O)CC(F)(F)F` [Example 76, N-(5-(2-(1H-Benzo [d]imidazol-2-yl)benzo[d]oxazol-6-yl)-2-methylpyridin-3-yl)-2,2,2-trifluoro-ethanesulfonamide bis(trifluoroacetate)], for which the IC50 in assay [1] and in assay [2] was < 250 nM in each case.
`O=S(=O)(CC(F)(F)F)Nc1cncc(-c2ccc3nc(-c4nc5ccccc5[nH]4)oc3c2)c1` [Example 77, N-(5-(2-(1H-Benzo [d]imidazol-2-yl)benzo[d]oxazol-6-yl)pyridin-3-yl)-2,2,2-trifluoro-ethanesulfonamide bis(trifluoroacetate)]: the IC50 in assay [1] is < 250 nM; in assay [2], < 1000 nM.
The corresponding values for `CCS(=O)(=O)Nc1cc(-c2ccc3nc(-c4nc5ccccc5[nH]4)oc3c2)ncc1F` [Example 78, N-(2-(2-(1H-Benzo [d]imidazol-2-yl)benzo[d]oxazol-6-yl)-5-fluoropyridin-4-yl) ethanesulfonamide bis(trifluoroacetate)] are < 5000 nM and < 5000 nM.
In the case of `CCS(=O)(=O)Nc1cc(-c2ccc3nc(-c4nc5ccccc5[nH]4)oc3c2)cnc1OC` [Example 79, N-(5-(2-(1H-Benzo [d]imidazol-2-yl)benzo[d]oxazol-6-yl)-2-methoxypyridin-3-yl)ethanesulfonamide bis(trifluoroacetate)], the IC50 in assay [1] and in assay [2] was < 250 nM in each case.
For `CCS(=O)(=O)Nc1cc(-c2ccc3nc(-c4nc5ccccc5[nH]4)oc3c2)cc(F)c1OC` [Example 80, N-(5-(2-(1H-Benzo [d]imidazol-2-yl)benzo[d]oxazol-6-yl)-3-fluoro-2-methoxyphenyl) ethanesulfonamide bis(trifluoroacetate)], the figures for the IC50 in assay [1] and in assay [2] were < 250 nM and < 5000 nM, respectively.
For the compound “N-(5-(2-(1H- Benzo[d]imidazol-2- yl)benzo[d]oxazol- 6-yl)pyridin-3- yl)ethanesulfonamide [Example 18]”, the IC50 was ≥ 5000 nM in assay [3] and < 1000 nM in assay [2].
